Measured values: PubChem BioAssay AID504322 (Emory University Molecular Libraries Screening Center, 2011)
pIC50: −log10 of the molar value. Activity calls are given as the source filed them. No rule for the calls is given here.

What follows are compounds tested on CHOP reporter cell assay, percent of control (assay: CHOP reporter inhibitor potency, dose response, cell-based (AID 504322);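 also: CHO cells carrying a CHOP reporter stimulated with tunicamycin to induce ER stress; potency is for inhibition of the stress-induced reporter signal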).

Compound | pIC50 | IC50
CCCOC(=O)c1ccc(Oc2c(-c3ccc(OCC)cc3O)n[nH]c2C)cc1 | 5.63 | 
CCOC(=O)c1cc(-c2cccs2)nc2c1c(C)nn2-c1ccccn1 |  | 9.14 µM (inactive)
COc1cc([C@@H]2c3cc4c(cc3[C@@H](O)[C@@H](CO)[C@@H]2CO)OCO4)cc(OC)c1O[Si](C)(C)C(C)(C)C |  | 6.02 µM (inactive)
Cc1nc(Nc2ccc(F)cc2)[nH]c(=O)c1CCC(C)C | 5.61 | 
CNc1ccc2oc(C[C@H]3O[C@@]4(CC[C@H]3C)O[C@H]([C@H](C)C(=O)c3ccc[nH]3)[C@H](C)C[C@H]4C)nc2c1C(=O)O | > 6.80 | 
COc1ccc(C2CC(c3c(-c4ccccc4)c4cc(Cl)ccc4[nH]c3=O)=NN2S(C)(=O)=O)cc1OC (stereo not drawn) |  | 8.04 µM (inactive)
COc1cccc(-n2nnnc2S(C)(=O)=O)c1 |  | 5.51 µM (inactive)
O=C(N/N=C/c1cccs1)c1cccc(NC(=O)c2ccc(Cl)cc2)c1 | 5.38 | 
CCCCCCCC(=O)N/N=C/c1ccc(Br)cc1 | 5.45 | 
CC(C)Oc1ccc(CNC(=O)CC(c2ccccc2)c2cc(Cl)ccc2O)cc1 (stereo not drawn) |  | 9.59 µM (inactive)
O=C1c2ccccc2C(=O)c2c1oc(C(F)(F)F)c2C(=O)c1ccccc1 |  | 9.61 µM (inactive)
O=C(NCc1ccccc1)c1cc(-c2ccncc2)nc2ccc(S(=O)(=O)N3CCOCC3)cc12 |  | 9.8 µM (inactive)
C=CCn1c(C)cc(C2=NNC(=NCC)SC2)c1C | > 6.80 | 
CC(/C=N/n1c(C2CCCCC2)n[nH]c1=S)=C\c1ccccc1 |  | 5.88 µM (inactive)
O=C(OCn1ncc(Cl)c(Cl)c1=O)c1ccc(F)cc1 | 5.47 | 
N=c1n(CC(=O)c2ccc([N+](=O)[O-])cc2)c2ccccc2n1Cc1ccc(Cl)cc1 |  | > 10 µM (inactive)
CCCCN=c1scc(-c2ccc3c(c2)NC(=O)CO3)n1N=C1CCCC1 |  | 8 µM (inactive)
CCCCn1c(/N=C/c2c[nH]c3ccccc23)nc2ccccc21 |  | 6.06 µM (inactive)
Cc1ccccc1N1CCN(C(=O)c2ccc(Oc3ccc(C(F)(F)F)cn3)cc2)CC1 |  | 3.48 µM (inactive)
CC1=C(C)/C(=N\OS(=O)(=O)c2ccc(C)cc2)C=CC1=O |  | 3.68 µM (inactive)
CC[n+]1c(/C=C2\Sc3ccccc3N2C)ccc2cccc(C)c21 |  | > 10 µM (inactive)
CN1/C(=C/C(=O)c2nc(S(C)(=O)=O)ncc2Cl)C(C)(C)c2ccccc21 | > 6.80 | 
Cc1cccc(NCC(=O)N/N=C\c2cccc(Oc3ccccc3)c2)c1 |  | 8.02 µM (inactive)
Cc1ccc(N(c2ncnc(N)c2[N+](=O)[O-])C2CCCCC2)cc1 |  | > 10 µM (inactive)

Compound | pIC50 | IC50
COC(=O)/C(=C(/F)Sc1cc(C)c(O)c(C)c1)C(F)(F)F |  | 9.36 µM (inactive)
O=C(/C=C/c1cccc([N+](=O)[O-])c1)n1cnc2ccccc21 |  | 5.36 µM (inactive)
O=c1[nH]c(=O)n(Cc2ccco2)c2c1C(C(F)(F)F)(C(F)(F)F)N=C(c1ccc(F)cc1)N2 |  | 6.5 µM (inactive)
COc1ccc(C(=O)Nc2nnc(-c3ccco3)s2)cc1 |  | 8.58 µM (inactive)
Nc1c(N(C(=O)Nc2ccc(Cl)c(Cl)c2)C2CCCC2)c(=O)[nH]c(=O)n1Cc1ccccc1 |  | > 10 µM (inactive)
CCOc1cccc(C(=O)Nc2cccc(-c3nnc(-c4ccc(C)cc4)o3)c2)c1 | 5.58 | 
O=[N+]([O-])c1ccc(/C=N/n2c(C3CCCCC3)n[nH]c2=S)cc1 |  | 9.52 µM (inactive)
COc1ccc(-c2[nH]ncc2/C=C(/C#N)C(=O)NC2CCCCCC2)cc1 |  | 9.23 µM (inactive)
O=C(O)c1ccc(N/N=C/c2ccc3nccnc3c2)cc1 |  | 6.06 µM (inactive)
CCOc1ccc(N=Cc2c(O)n(C(C)(C)C)c(=O)[nH]c2=O)cc1 |  | 9.2 µM (inactive)
CCCCCCN=C(CC)c1c(O)n(CCCC)c(=O)[nH]c1=O |  | 7.59 µM (inactive)
Oc1cccc(-c2nc3c4c(ncn3n2)-c2ccccc2CC42CCCC2)c1 |  | 5.25 µM (inactive)
COc1ccc(OCc2cccc(C(=O)Nn3cc([N+](=O)[O-])cn3)c2)cc1 | 6.07 | 
Cc1ccc2c(C)nc(Nc3nc(CSc4nc5ccccc5[nH]4)cc(=O)[nH]3)nc2c1 |  | 3.8 µM (inactive)
CCCCCn1c(SCCC(C)C)nc2c1c(=O)[nH]c(=O)n2C |  | 6.85 µM (inactive)
Cc1ccc2[nH]c3c(c2c1)CN(C(=O)CN1CCN(c2cccc(C)c2C)CC1)CC3 |  | 8.33 µM (inactive)
O=C(CNC1CCCCCC1)Nc1ccccc1N1CCCCC1 |  | 7.73 µM (inactive)
COc1ccc(-c2[nH]ncc2N=Nc2cc(C)cc(C)c2)cc1 |  | 9.27 µM (inactive)
OC(CNCCc1ccc(C(F)(F)F)cc1)COc1ccc2ccccc2c1 (stereo not drawn) |  | 9.41 µM (inactive)
O=C(Nc1ccc(-c2nc3ccccc3s2)cc1)C1=COCCO1 |  | 7.48 µM (inactive)
CCCC(NCC(O)COc1ccc(-c2ccccc2)cc1)c1ccccc1 (stereo not drawn) |  | 9.3 µM (inactive)
Cc1cccc(NC2=C/C(=N/S(=O)(=O)c3cccs3)c3ccccc3C2=O)c1 | 5.35 | 
CCc1ccc(OCC(=O)NC(NC(=S)Nc2ccccc2)C(Cl)(Cl)Cl)cc1 (stereo not drawn) |  | 8.12 µM (inactive)
O=C(Nc1ccc(C(F)(F)F)cc1)c1cc(-c2cccnc2)nc2ccc(Br)cc12 | 5.44 | 
